This experiment deals with T1, PIEZO1 (SW982 cells) (Homo sapiens, UniProt Q92508).
T1 construct: endogenous full-length channel in native SW982 cells; response lost on PIEZO1 siRNA knockdown
In words: Fura-2 Ca2+ imaging. The conditions noted are these: agonist; SBS with […] Ca2+, pH […]-26 °C; native SW982 cells, […] tested; bound only; read-out: apparent EC50. Type of experiment: cell-based.

T1 sequence (Q92508 whole entry): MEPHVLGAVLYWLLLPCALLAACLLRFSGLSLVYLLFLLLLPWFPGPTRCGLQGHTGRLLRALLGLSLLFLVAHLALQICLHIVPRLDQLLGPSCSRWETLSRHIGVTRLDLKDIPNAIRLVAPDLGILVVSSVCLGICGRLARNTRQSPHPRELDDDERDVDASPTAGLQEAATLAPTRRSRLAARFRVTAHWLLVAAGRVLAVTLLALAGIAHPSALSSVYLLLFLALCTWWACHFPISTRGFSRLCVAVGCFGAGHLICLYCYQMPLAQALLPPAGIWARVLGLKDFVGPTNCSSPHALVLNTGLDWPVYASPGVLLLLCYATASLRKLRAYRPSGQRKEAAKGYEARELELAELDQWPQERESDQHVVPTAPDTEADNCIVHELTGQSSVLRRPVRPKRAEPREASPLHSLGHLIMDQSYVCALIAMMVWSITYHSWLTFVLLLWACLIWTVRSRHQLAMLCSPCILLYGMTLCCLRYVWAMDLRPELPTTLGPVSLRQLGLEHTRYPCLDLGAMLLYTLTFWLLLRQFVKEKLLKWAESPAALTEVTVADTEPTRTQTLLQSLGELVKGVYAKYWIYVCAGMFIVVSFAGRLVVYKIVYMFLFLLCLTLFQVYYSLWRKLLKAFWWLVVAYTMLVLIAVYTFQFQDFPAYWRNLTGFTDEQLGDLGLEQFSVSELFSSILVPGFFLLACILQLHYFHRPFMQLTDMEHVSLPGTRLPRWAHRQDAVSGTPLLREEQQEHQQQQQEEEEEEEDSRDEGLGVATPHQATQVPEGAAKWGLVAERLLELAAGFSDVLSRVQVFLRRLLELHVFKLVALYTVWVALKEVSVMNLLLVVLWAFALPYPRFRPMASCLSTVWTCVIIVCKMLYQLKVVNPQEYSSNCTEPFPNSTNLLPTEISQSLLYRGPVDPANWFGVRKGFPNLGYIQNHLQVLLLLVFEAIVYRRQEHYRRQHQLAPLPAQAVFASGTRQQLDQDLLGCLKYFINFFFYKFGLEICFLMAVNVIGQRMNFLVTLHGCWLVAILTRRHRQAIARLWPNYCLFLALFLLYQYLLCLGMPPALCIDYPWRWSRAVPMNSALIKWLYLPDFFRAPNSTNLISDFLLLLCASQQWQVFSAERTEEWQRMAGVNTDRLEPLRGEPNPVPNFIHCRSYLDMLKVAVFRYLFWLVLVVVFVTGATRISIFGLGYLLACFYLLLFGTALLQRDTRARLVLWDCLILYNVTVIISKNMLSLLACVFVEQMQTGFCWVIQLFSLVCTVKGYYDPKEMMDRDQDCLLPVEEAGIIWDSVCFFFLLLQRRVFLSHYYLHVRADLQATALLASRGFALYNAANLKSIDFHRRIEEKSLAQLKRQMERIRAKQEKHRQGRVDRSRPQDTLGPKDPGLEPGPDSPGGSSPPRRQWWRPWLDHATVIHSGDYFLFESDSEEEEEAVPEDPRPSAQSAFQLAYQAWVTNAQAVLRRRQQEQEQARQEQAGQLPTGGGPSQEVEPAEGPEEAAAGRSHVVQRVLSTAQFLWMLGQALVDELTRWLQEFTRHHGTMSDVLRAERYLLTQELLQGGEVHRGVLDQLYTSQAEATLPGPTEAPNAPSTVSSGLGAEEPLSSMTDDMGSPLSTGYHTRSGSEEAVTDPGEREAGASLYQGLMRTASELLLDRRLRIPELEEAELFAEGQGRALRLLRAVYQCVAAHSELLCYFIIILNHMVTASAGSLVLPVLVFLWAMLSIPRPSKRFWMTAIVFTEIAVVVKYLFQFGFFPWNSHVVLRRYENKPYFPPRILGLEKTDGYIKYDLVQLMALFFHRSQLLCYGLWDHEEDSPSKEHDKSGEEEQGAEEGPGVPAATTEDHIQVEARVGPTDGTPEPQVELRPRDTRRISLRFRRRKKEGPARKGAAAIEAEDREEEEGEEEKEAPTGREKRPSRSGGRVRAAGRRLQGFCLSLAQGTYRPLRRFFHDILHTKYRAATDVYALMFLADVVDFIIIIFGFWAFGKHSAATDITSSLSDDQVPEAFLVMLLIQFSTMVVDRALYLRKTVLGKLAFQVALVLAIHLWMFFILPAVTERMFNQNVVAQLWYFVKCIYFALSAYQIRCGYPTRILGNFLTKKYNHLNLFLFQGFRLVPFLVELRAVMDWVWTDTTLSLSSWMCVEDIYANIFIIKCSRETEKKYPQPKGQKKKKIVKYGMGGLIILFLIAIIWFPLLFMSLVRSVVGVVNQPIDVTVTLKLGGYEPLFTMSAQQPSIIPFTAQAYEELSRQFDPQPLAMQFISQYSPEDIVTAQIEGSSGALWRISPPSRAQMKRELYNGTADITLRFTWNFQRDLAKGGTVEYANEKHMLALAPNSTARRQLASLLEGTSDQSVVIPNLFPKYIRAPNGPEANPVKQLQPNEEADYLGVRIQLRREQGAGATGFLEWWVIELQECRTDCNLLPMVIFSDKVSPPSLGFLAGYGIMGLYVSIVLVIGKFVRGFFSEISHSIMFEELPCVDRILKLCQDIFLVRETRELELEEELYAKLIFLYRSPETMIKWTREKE

Take `Clc1cccc(Cl)c1CSc1nnc(-c2cnccn2)s1` [Yoda1, 2-[5-[[(2,6-Dichlorophenyl)methyl]thio]-1,3,4-thiadiazol-2-yl]-pyrazine]: the EC50 was < 1000 nM.

Values taken from PMC5983681, “PIEZO1 Channel Is a Potential Regulator of Synovial Sarcoma Cell-Viability” (International Journal of Molecular Sciences, 2018).
